The target of experiment [1] is T1, full-length NS3/4A protease (genotype 1b) (Hepatitis C virus genotype 1b, UniProt Q9WMX2).
T1 construct: wild-type HCV NS3 (HCV polyprotein residues 1027–1657); His-tag (N); made in house
As to the kind of experiment: biochemical. As to conditions: purified full-length NS3/4A, genotype 1b wild-type; read-out: IC50 Full-length NS3/4A. The protocol: All assays were done in duplicate in black 384-well plates (Matrix Technologies). […] 200 nL of 10 mM compound (50 µM final concentrations) were then added and incubated for 5 minutes. Enzyme reactions were initiated with 10 µL of substrate Ac-DE-Dap(QXL520)-EE-Abu-ψ-[COO]AS-C(5-FAMsp)-NH2 (Anaspec) (1 µM final concentration), incubated for 6 minutes, and quenched by 10 µL of 10% SDS as a stop solution. Fluorescence intensity was monitored with a POLARstar OPTIMA microplate reader (BMG LABTECH). Each plate contained a total of 32 positive and 32 negative controls.
A series of compound concentrations (0 to 200 µM final concentration at 2-fold serial dilution) in 100% DMSO were prepared in a 384-well plate. 20 µL of enzyme solution was distributed to wells, and 0.5 µL of varying concentration of compounds were added and incubated for 5 minutes. The enzyme reaction was initiated by adding 5 µL of the substrate, and its activity was continuously monitored for 6 minutes. The IC50 values were calculated by fitting with the Hill equation (1), with OriginPro 8.5 (OriginLab, Inc.) where y is percent inhibition, x is inhibitor concentration, n is the slope of the concentration–response curve (Hill slope), and Vmax is maximal inhibition from two to four independent assays. [drawing 1] (1)

Experiment [2] concerns the target T2, full-length NS3/4A (Hepatitis C virus genotype 1b, UniProt Q9WMX2).
T2 construct: wild-type HCV NS3 (HCV polyprotein residues 1027–1657); His-tag (N); made in house
As to the kind of experiment: SPR binding assay (dissociation equilibrium constant KD). Conditions: for SPR binding to NS3/4A, double referenced: double referenced with blank and unrelated reference protein. The protocol: The full-length NS3/4A enzyme was prepared in a storage buffer (50 mM HEPES, pH 7.6, 500 mM NaCl, 1 mM DTT, 0.2% Triton X-100, and 20% glycerol) and immobilized on a CM5 sensor chip using standard amine-coupling at 25°C with running buffer HBS-P (10 mM HEPES, 150 mM NaCl, 0.05% surfactant P-20, pH 7.4) using a Biacore T100 instrument. Flow channels 1 and 3 were activated by 1-ethyl-3-(3-dimethylaminopropyl) carbodiimide hydrocholoride (EDC)/N-hydroxy succinimide (NHS) mixture, and the activated surface was blocked by ethanolamine (pH 8.5) as controls. The NS3/4A enzyme was diluted in 10 mM sodium acetate (pH 5.0), and immobilized to flow channel 4 after sensor surface activation with EDC/NHS with a 7 min injection followed by ethanolamine blocking on unoccupied surface area. NS3/4A immobilization level was ∼8,500 response units (RU). An unrelated reference protein (92 kDa) was also immobilized to flow channel 2 as another control to be compared with NS3/4A (74.6 kDa). Fifteen initial hit compounds were prepared as 10 mM DMSO stock solutions. Compound solutions with a series of increasing concentrations (0–200 µM at 1.5-fold dilution) were applied to all four channels at a 10 µL/min flow rate at 25°C. Sensorgrams were analyzed using Biaevaluation software 2.0.3, and response unit difference (ΔRU) values at each concentration were measured during the equilibration phase. Data were either single referenced with a blank (enthanolamine) or double referenced with both blank and reference protein RU values. SigmaPlot 11.0 was used to fit the data to a single rectangular hyperbolic curve to determine KD values. The hyperbola function, y = ymax·x/(KD+x), was used to plot response units and corresponding concentration, where y is the response, ymax is the maximum response, and x is the compound concentration.
A general note: In SPR one partner is held on a chip, and binding of the other changes the refractive index at the surface.

Experiment [3] deals with T3, full-length NS3/4A enzyme complex (Hepatitis C virus genotype 1b, UniProt Q9WMX2).
T3 construct: wild-type HCV NS3 (HCV polyprotein residues 1027–1657); His-tag (N); made in house
As to the kind of experiment: Reversibility of inhibition by dilution. It is filed as biochemical. Conditions: dilution 25-fold and 50-fold. The protocol:
The reversibility of hit compounds was determined by dilution. The full-length NS3/4A enzyme complex was prepared as 20-fold (200 nM) of the assay concentration and was incubated with screened compounds at 20-fold IC50 value or slightly higher concentration for 30 minutes at room temperature in the same assay condition as the primary screen in a final volume of 100 µL. The concentration of enzyme and testing compound was optimized to yield at least 95% inhibition before dilution. The NS3/4A enzyme with the same volume of DMSO in place of each compound was also prepared as a control. NS3/4A activity was measured in the same way as the IC50 measurements. Then enzyme-inhibitor solution was diluted 25-fold and 50-fold and incubated for 30 minutes before measuring the percent recovery of the enzyme activity. All reversibility assays were done in triplicate.

The target of experiment [4] is T4, full-length NS3/4A genotype 1b mutant V36M (Hepatitis C virus genotype 1b, UniProt Q9WMX2, V1062M).
T4 construct: wild-type HCV NS3 (HCV polyprotein residues 1027–1657); His-tag (N); made in house
As to the kind of experiment: Inhibition assay with drug-resistant mutant V36M. As to conditions: genotype 1b full-length mutant. The format is biochemical. The protocol: (§1) The full-length genes of wild-type HCV NS3 (HCV polyprotein residues 1027–1657) with a his-tag at the N-terminus and NS4A (residues 1658–1711) with no tag were cloned, co-expressed, and purified as described. Eight NS3 drug resistant mutants (V36M, V36A, T54A, R155K, R155T, A156T, A156S, and 156V) were generated by mutagenesis using full-length, wild-type NS3-containing recombinant plasmid (pETDuet-1/FL NS3/4A) as a template. The over-expression and purification of all mutants were performed by the same method as the wild-type with minor modifications.
(§2) The inhibitory activity of the final hit compounds from HTS were tested against three other HCV genotypes (1a, 2a, and 4d), along with a control (genotype 1b) and five NS3 drug-resistant mutants. Eight full-length NS3 mutants (V36M, R155K, A156T, A156S, 156V, V36A, T54A, and R155T) were generated by mutagenesis and purified, and the three HCV NS3/4A protease genotypes were purchased from Anaspec. Unfortunately the enzyme activities of the three mutants V36A, T54A, and R155T were much less than that of the rest of the mutants and were insufficient for testing, therefore mutant studies were done with the five active mutants. Continuous kinetic assays were performed against all hit compounds in the same way as the wild-type NS3/4A. […]

The target in a further experiment is T5, Chymotrypsin (Homo sapiens, UniProt P17538).
T5 construct: purchased Sigma
T5 sequence (P17538 19-263): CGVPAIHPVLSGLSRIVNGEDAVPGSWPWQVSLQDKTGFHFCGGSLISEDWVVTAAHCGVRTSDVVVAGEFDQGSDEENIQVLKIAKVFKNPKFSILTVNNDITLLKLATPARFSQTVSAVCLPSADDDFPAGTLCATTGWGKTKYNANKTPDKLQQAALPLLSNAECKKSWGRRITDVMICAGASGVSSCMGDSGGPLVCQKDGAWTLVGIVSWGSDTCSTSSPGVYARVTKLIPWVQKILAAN
As to the kind of experiment: Inhibitor selectivity assay, chymotrypsin (fluorometric). The format is biochemical. As to conditions: human chymotrypsin. The protocol: (§3) To test for selectivity, two human serine proteases, Trypsin and Chymotrypsin (Sigma), were tested with the top two hit compounds from HTS using a fluorometric assay. The fluorogenic substrates used in this study were N-benzoyl-L-Arg-7-amido-4-methylcoumarin (Sigma) and N-succinyl-Ala-Ala-Phe-7-amido-4- methylcoumarin (Sigma) for trypsin and chymotrypsin, respectively. All assays were performed in 384-well black plates (Corning) in a total volume of 24 µL of PBS (pH 7.4) buffer containing 0.01% Triton, 0.1 mg/mL BSA, and 2 mM GSH in triplicate. A series of compound concentrations (0 to 200 µM final concentration at 2-fold serial dilution) in 100% DMSO was prepared in a 384-well plate. 20 µL of trypsin (0.01 mg/mL) and chymotrypsin (0.0001 mg/mL) solutions were distributed into wells, and 0.5 µL of varying concentration of compounds were added and incubated for 10 minutes. The enzyme reaction was initiated by adding 5 µL of the substrate (50 µM final concentration), and fluorescence intensity was continuously monitored at excitation/emission wavelengths of 350 nm/460 nm for 10 minutes.

The target in experiment [5] is T6, full-length NS3/4A genotype 1b mutant A156V (Hepatitis C virus genotype 1b, UniProt Q9WMX2, A1182V).
T6 construct: wild-type HCV NS3 (HCV polyprotein residues 1027–1657); His-tag (N); made in house
Description: Inhibition assay with drug-resistant mutant A156V. As to conditions: genotype 1b full-length mutant. The format is biochemical. How it is done:
as §1, §2

Experiment [6] addresses T7, NS3/4A protease genotype 2a (Hepatitis C virus genotype 2a, UniProt Q99IB8).
T7 construct: against the NS3/4A protease domains from three additional HCV genotypes (1a, 2a, and 4d); purchased Anaspec
As to the kind of experiment: Inhibition assay with NS3/4A from genotype 2a. It is filed as biochemical. Conditions: IC50 Purified NS3/4A Sub-genotype 2a, genotype 2a. The protocol: (§4) The inhibitory activity of the final hit compounds from HTS were tested against three other HCV genotypes (1a, 2a, and 4d), along with a control (genotype 1b) and five NS3 drug-resistant mutants. Eight full-length NS3 mutants (V36M, R155K, A156T, A156S, 156V, V36A, T54A, and R155T) were generated by mutagenesis and purified, and the three HCV NS3/4A protease genotypes were purchased from Anaspec. Unfortunately the enzyme activities of the three mutants V36A, T54A, and R155T were much less than that of the rest of the mutants and were insufficient for testing, therefore mutant studies were done with the five active mutants. Continuous kinetic assays were performed against all hit compounds in the same way as the wild-type NS3/4A. As a control, full-length NS3/4A (genotype 1b) was tested under the same conditions for direct comparison for each plate.

Experiment [7] deals with T8, NS3/4A protease genotype 1a (Hepatitis C virus genotype 1a, UniProt P27958).
T8 construct: against the NS3/4A protease domains from three additional HCV genotypes (1a, 2a, and 4d); purchased Anaspec
As to the kind of experiment: Inhibition assay with NS3/4A from genotype 1a. It is filed as biochemical. As to conditions: IC50 NS3/4A genotype 1a. How it is done:
as §4

In experiment [8] the target is NS3/4A protease genotype 4d (Hepatitis C virus subtype 4d, UniProt Q1ZZ56). As to the kind of experiment: Inhibition assay with NS3/4A from genotype 4d. The format is biochemical. How it is done: as §4
Experiment [9] deals with T9, full-length NS3/4A genotype 1b mutant A156S (Hepatitis C virus genotype 1b, UniProt Q9WMX2, A1182S).
T9 construct: wild-type HCV NS3 (HCV polyprotein residues 1027–1657); His-tag (N); made in house
Description: Inhibition assay with drug-resistant mutant A156S. The format is biochemical. Conditions: in words. The protocol:
as §1, §2

The next experiment deals with T10, Trypsin (Homo sapiens, UniProt P07477).
T10 construct: purchased Sigma
Description: Inhibitor selectivity assay, trypsin (fluorometric). It is filed as biochemical. How it is done: as §3

For experiment [10], the target named is T2, full-length NS3/4A. As to the kind of experiment: Type (mechanism) of enzyme inhibition, kinetic analysis. It is filed as biochemical. How it is done: Full-length NS3/4A activity was monitored in the same way as the primary screening with varying concentration of both inhibitor compounds and substrate (0–8 µM). The concentration of compounds varied from 0 to 20 µM at 1.5-fold dilution factor.

The target in experiment [11] is T11, full-length NS3/4A genotype 1b mutant A156T (Hepatitis C virus genotype 1b, UniProt Q9WMX2, A1182T).
T11 construct: wild-type HCV NS3 (HCV polyprotein residues 1027–1657); His-tag (N); made in house
As to the kind of experiment: Inhibition assay with drug-resistant mutant A156T. The format is biochemical. Conditions: in words. The protocol: as §1, §2

Experiment [12] addresses T12, full-length NS3/4A genotype 1b mutant R155K (Hepatitis C virus genotype 1b, UniProt Q9WMX2, R1181K).
T12 construct: wild-type HCV NS3 (HCV polyprotein residues 1027–1657); His-tag (N); made in house
As to the kind of experiment: Inhibition assay with drug-resistant mutant R155K. It is filed as biochemical. Conditions: in words. The protocol:
as §1, §2

Molecules are shown by their SMILES. “And” between values parts separate entries of the source, which are not always exact repeats. Equal values may be shown once.

Consider `CC1(C)CCc2cc(/C=C(\C#N)C(=O)c3cccc(C(F)(F)F)c3)ccc2O1` [Compound 6], for which, in experiment [1], the IC50 is 7.6 ± 0.6 µM. In addition, the Kd (in general, the concentration at which binding is half-saturated) at full-length NS3/4A [2] (SPR, 25°C, single rectangular hyperbolic fit) worked out at 8.3 ± 1.9 µM. The “SPR binding to NS3/4A, double referenced” value at full-length NS3/4A [2] was “specific binding”. In experiment [3], the reversibility of inhibition result is given as “reversible”.
For `CC(C)C(=O)N1CCc2ccc(NC(=O)COc3ccc(F)cc3)cc2C1` [Compound 13], the IC50 in experiment [4] was less than 20 µM; in experiment [1] it was 20.2 ± 2.2 µM; at Chymotrypsin, 110 ± 32 µM; in experiment [5], less than 20 µM; in experiment [6] it was less than 20 µM; in [7] it was 1700 nM and < 20000 nM. The IC50 in experiment [8] was less than 20 µM; at Trypsin (human trypsin), more than 100 µM. In addition, the “activity against mutant A156S compared with wild-type” value in [9] is “decreased in activity”. For the same compound, the inhibition at 100 µM at Trypsin (100 µM compound, read-out: Trypsin % Inh at 100 µM) was found to be 5.1%. For the same compound, the “SPR binding to NS3/4A, double referenced” value at full-length NS3/4A [2] is reported as “specific binding”. Besides, at full-length NS3/4A [10] (competitive model, with respect to substrate), the affinity, expressed as Ki, was 19.1 µM. For the same compound, the mechanism of inhibition entry at full-length NS3/4A [10] (with respect to the substrate, best fit model) was “competitive inhibitors”. In addition, the “activity against mutant A156T compared with wild-type” value in [11] was “decreased in activity”. The “activity against mutant R155K compared with wild-type” value in experiment [12] is “completely lost activity”.

The values are drawn from paper PMC3793977, “High-Throughput Screening (HTS) and Hit Validation to Identify Small Molecule Inhibitors with Activity against NS3/4A proteases from Multiple Hepatitis C Virus Genotypes” (PLoS ONE, 2013).
